Reference: ChEMBL document CHEMBL1133464, “Ligands for glutamate receptors: design and therapeutic prospects” (J Med Chem, 2000)

Experiments:
[1] = molecular target: Metabotropic glutamate receptor 1 (Homo sapiens, UniProt Q13255); test: Agonist potency against cloned human metabotropic glutamate receptor 1; format: functional
[2] = molecular target: Metabotropic glutamate receptor 5 (Homo sapiens, UniProt P41594); test: Agonist potency against cloned metabotropic glutamate receptor 5; format: functional
Sequence of Metabotropic glutamate receptor 5 (P41594 whole entry): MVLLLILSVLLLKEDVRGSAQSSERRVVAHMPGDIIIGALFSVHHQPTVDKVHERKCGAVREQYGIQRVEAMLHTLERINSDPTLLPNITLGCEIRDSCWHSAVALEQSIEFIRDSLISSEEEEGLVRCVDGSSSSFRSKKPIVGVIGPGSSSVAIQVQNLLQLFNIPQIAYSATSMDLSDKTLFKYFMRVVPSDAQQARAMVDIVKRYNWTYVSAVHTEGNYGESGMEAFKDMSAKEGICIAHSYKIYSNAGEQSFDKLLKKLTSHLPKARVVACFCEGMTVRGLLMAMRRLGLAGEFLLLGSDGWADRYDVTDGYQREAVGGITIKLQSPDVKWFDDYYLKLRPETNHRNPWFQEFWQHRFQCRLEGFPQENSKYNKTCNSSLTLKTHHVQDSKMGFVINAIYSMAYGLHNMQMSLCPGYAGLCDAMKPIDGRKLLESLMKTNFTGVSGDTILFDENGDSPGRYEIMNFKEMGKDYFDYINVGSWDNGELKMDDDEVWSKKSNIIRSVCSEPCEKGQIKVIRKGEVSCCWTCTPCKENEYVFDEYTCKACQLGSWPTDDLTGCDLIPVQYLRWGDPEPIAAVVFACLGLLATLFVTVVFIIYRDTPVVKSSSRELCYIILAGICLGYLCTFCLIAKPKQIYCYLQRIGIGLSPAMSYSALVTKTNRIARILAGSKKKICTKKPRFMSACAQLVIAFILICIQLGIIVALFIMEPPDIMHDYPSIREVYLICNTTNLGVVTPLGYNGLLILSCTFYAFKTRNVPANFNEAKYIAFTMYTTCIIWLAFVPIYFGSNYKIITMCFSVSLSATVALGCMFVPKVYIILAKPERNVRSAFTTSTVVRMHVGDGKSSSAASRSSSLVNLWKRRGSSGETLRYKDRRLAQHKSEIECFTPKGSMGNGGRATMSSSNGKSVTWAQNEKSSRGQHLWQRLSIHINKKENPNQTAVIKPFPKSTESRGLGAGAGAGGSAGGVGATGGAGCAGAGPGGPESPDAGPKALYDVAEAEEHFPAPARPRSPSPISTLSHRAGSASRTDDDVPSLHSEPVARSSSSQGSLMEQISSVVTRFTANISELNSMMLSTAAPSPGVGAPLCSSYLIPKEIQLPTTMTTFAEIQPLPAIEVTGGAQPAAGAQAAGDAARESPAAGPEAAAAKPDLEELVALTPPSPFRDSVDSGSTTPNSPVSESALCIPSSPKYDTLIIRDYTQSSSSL

[3] = molecular target: Metabotropic glutamate receptor 2 (Homo sapiens, UniProt Q14416); test: Partial agonist potency against cloned Metabotropic glutamate receptor 2; format: functional
Sequence of Metabotropic glutamate receptor 2 (Q14416 whole entry): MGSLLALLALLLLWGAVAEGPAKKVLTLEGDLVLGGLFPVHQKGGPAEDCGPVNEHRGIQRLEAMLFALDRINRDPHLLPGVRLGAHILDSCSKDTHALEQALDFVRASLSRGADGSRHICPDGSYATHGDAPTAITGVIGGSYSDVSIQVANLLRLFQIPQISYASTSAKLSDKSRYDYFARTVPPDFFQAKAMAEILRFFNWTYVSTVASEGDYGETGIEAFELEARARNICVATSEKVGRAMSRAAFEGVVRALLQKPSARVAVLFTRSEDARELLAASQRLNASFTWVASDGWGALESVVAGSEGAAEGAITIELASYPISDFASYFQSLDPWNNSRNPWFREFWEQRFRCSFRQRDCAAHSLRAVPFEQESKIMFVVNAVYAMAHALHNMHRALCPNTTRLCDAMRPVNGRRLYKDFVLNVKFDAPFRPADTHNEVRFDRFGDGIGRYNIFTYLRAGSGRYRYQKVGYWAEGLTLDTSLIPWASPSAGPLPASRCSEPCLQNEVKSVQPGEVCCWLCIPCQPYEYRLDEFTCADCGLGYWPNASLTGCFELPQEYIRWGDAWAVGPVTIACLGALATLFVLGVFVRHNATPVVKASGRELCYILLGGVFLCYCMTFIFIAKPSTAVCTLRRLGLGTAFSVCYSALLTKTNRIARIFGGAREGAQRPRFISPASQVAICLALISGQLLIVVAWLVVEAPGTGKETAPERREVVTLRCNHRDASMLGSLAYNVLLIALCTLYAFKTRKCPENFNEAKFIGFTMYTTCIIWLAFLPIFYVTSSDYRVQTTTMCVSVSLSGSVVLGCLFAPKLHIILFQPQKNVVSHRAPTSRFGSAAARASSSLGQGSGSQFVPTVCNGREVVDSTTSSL

[4] = molecular target: Metabotropic glutamate receptor 4 (Homo sapiens, UniProt Q14833); test: Agonist potency against cloned human Metabotropic glutamate receptor 4 (mGluR-4); format: functional
Sequence of Metabotropic glutamate receptor 4 (Q14833 whole entry): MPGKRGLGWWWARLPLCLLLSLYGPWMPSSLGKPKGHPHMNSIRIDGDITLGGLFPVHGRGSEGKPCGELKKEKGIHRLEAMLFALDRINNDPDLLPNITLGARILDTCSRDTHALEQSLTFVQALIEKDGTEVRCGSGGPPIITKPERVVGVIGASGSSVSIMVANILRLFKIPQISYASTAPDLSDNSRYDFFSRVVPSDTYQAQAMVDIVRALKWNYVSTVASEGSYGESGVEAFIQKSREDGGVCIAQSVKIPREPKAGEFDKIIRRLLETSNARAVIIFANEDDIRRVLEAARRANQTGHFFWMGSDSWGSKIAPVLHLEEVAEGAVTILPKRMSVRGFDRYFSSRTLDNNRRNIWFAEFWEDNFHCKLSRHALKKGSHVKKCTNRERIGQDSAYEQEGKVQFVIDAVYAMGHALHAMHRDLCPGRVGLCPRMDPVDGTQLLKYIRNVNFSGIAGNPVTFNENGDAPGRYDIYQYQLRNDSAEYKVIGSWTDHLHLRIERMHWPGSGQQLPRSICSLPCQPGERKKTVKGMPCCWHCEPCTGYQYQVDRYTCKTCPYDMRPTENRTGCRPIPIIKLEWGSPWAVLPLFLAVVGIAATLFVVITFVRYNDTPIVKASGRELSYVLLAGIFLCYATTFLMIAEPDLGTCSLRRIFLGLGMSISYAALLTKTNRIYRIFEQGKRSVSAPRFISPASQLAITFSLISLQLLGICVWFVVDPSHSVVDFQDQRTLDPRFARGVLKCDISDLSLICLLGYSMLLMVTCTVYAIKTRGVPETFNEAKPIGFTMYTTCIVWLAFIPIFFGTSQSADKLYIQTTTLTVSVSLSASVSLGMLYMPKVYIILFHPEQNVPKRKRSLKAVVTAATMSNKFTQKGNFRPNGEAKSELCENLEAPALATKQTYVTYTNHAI

[5] = (§1) Effective concentration against NR1/NR2A receptor
[6] = as §1; remark: listed apart in the source
[7] = as §1; remark: listed apart in the source
[8] = as §1; remark: listed apart in the source

Sequence of Metabotropic glutamate receptor 1 (Q13255 whole entry): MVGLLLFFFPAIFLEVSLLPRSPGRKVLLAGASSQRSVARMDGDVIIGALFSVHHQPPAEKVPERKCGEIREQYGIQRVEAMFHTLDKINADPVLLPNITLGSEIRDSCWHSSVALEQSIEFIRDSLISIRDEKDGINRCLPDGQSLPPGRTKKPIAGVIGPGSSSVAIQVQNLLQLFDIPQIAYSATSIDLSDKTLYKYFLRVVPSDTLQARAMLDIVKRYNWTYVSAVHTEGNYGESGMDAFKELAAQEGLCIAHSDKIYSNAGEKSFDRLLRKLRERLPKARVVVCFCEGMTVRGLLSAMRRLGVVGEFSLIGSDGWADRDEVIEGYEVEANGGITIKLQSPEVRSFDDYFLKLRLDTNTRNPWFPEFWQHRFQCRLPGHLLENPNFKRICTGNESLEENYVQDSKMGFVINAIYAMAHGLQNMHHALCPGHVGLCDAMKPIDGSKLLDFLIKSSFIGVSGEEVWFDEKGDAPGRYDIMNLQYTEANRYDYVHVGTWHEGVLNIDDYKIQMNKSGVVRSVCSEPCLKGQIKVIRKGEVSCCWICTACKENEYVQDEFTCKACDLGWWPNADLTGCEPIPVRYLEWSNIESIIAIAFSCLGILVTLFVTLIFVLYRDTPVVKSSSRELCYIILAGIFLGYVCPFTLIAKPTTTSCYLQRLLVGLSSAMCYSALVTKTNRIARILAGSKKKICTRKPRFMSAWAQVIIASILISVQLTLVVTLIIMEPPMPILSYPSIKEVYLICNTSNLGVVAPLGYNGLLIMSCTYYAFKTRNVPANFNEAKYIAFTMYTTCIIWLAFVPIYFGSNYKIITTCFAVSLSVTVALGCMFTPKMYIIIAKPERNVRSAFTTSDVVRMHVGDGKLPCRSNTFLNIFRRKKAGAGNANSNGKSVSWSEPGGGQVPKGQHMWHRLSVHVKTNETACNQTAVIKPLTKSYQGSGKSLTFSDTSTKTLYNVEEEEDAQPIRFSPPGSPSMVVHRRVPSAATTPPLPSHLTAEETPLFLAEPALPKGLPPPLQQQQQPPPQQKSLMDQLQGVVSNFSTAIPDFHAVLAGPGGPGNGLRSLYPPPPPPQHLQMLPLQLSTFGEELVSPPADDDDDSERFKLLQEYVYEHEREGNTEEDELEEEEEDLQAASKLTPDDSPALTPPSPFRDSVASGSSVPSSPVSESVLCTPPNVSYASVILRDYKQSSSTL

Q: Which results are given for N[C@H](C(=O)O)C12C3C4C1C1C2C3C41C(=O)O (stereo partly drawn)?
A: Ki [1]: 232 µM; Ki [2]: > 1000 µM; Ki [3]: 55 µM; Ki [4]: > 1000 µM

Q: With CN[C@H](CC(=O)O)C(=O)O [N-METHYL-D-ASPARTIC ACID (NMDA)] as the molecule, how does the EC50 [5] read?
A: Its EC50 is 22 µM.

Q: And the EC50 [6]?
A: Its EC50 is 20 µM.

Q: What about the EC50 [7] of the same molecule?
A: The EC50 was 9 µM.

Q: And the EC50 [8]?
A: Its EC50 is 36 µM.
